Experimental data from US10112945B2, “Fused quinoline compunds as PI3K, mTOR inhibitors” (ADVENCHEN PHARMACEUTICALS, NANJING LTD., priority 2014, dated 2018).

Key:
mTor = target: T1, mTor (Homo sapiens, UniProt P42345); assay: In vitro kinase inhibition, mTor (Millipore/Merck kinases panel screening); format: biochemical; settings: compound at 0.03 μM
T1 construct: purchased Millipore/Merck KGA
Method: (§1) In vitro kinase inhibition activities included Pi3k and mTor activities can be tested with Millipore/Merck KGA of Europe in their kinases panel screening. Animal antitumor activity testing can be conducted by various cancer xenograft models for a compound of formula I.
(§2) The following compounds or a pharmaceutically acceptable salt thereof, but not limited, can also be prepared similarly according to the methods described in Scheme I-Scheme II. They are also tested for the inhibitions on mTor or pi3k kinases, or tumor cell lines.

pi3K = assay: In vitro kinase inhibition, pi3K (Millipore/Merck kinases panel screening); format: biochemical; settings: compound at 0.03 μM
Method: as §1, §2

Molecule: FC(F)(F)c1ccc(-n2c3c4cc(-c5cnc6ccccc6c5)ccc4ncc3n3cnnc23)cc1 [3-quinoline, H, H, 4-(quinolin-3yl)-16-[4-(trifluoromethyl)phenyl]-8,11,13,14,16-pentaazatetracyclo-[8.6.0.0^2,7.0^11,15]hexadeca-1(10),2,4,6,8,12,14-heptaene]
- activity at 0.03 µM (mTor; scaffold drawing 34 series): 68%
- pi3K % activity @0.03 μM (pi3K; scaffold drawing 34 series): 99%

Molecule: COCCNc1ccc(-c2ccc3ncc4c(c3c2)n(-c2ccc(Cl)c(C(F)(F)F)c2)c2nncn42)cn1 [5-{16-[4-chloro-3-(trifluoromethyl)phenyl]-8,11,13,14,16-pentaazatetracyclo[8.6.0.0^2,7.0^11,15]-hexadeca-1(10),2,4,6,8,12,14-heptaen-4-yl}-N-(2-methoxyethyl)pyridin-2-amine]
- activity at 0.03 µM (mTor; scaffold drawing 7 series): -5%
- pi3K % activity @0.03 μM (pi3K; scaffold drawing 7 series): 87%

Molecule: N-[2-(morpholin-4-yl)ethyl]-5-{16-[3-(trifluoromethyl)phenyl]-8,11,13,14,16-pentaazatetra-cyclo[8.6.0.0^2,7.0^11,15]hexadeca-1(10),2,4,6,8,12,14-heptaen-4-yl}pyridin-2-amine
- mTor % activity @0.03 μM (mTor; scaffold drawing 7 series): 43%
- pi3K % activity @0.03 μM (pi3K; scaffold drawing 7 series): 94%

Molecule: FC(F)(F)c1cc(-n2c3c4cc(-c5ccc(NCCN6CCOCC6)nc5)ccc4ncc3n3cnnc23)ccc1Cl [5-{16-[4-chloro-3-(trifluoromethyl)phenyl]-8,11,13,14,16-pentaazatetracyclo[8.6.0.0^2,7.0^11,15]-hexadeca-1(10),2,4,6,8,12,14-heptaen-4-yl}-N-[2-(morpholin-4-yl)ethyl]pyridin-2-amine]
- activity at 0.03 µM (mTor; scaffold drawing 7 series): 20%
- pi3K % activity @0.03 μM (pi3K; scaffold drawing 7 series): 93%

Molecule: FC(F)(F)c1cc(-n2c3c4cc(-c5ccc(NCCN6CCCC6)nc5)ccc4ncc3n3cnnc23)ccc1Cl [5-{16-[4-chloro-3-(trifluoromethyl)phenyl]-8,11,13,14,16-pentaazatetracyclo[8.6.0.0^2,7.0^11,15]-hexadeca-1(10),2,4,6,8,12,14-heptaen-4-yl}-N-[2-(pyrrolidin-1-yl)ethyl]pyridin-2-amine]
- activity at 0.03 µM (mTor; scaffold drawing 7 series): 15%
- pi3K % activity @0.03 μM (pi3K; scaffold drawing 7 series): 98%

Molecule: O=C(CN1CCCC1)Nc1ccc(-c2ccc3ncc4c(c3c2)n(-c2ccc(Cl)c(C(F)(F)F)c2)c2nncn42)cn1 [N-(5-{16-[4-chloro-3-(trifluoromethyl)phenyl]-8,11,13,14,16-pentaazatetracyclo[8.6.0.0^2,7.0^11,15]-hexadeca-1(10),2,4,6,8,12,14-heptaen-4-yl}pyridin-2-yl)-2-(pyrrolidin-1-yl)acetamide]
- activity at 0.03 µM (mTor; scaffold drawing 7 series): 4%
- pi3K % activity @0.03 μM (pi3K; scaffold drawing 7 series): 82%

Molecule: NCC(=O)Nc1ccc(-c2ccc3ncc4c(c3c2)n(-c2ccc(Cl)c(C(F)(F)F)c2)c2nncn42)cn1 [2-amino-N-(5-{16-[4-chloro-3-(trifluoromethyl)phenyl]-8,11,13,14,16-pentaazatetracyclo-[8.6.0.0^2,7.0^11,15]hexadeca-1(10),2,4,6,8,12,14-heptaen-4-yl}pyridin-2-yl)acetamide]
- activity at 0.03 µM (mTor; scaffold drawing 7 series): 9%
- pi3K % activity @0.03 μM (pi3K; scaffold drawing 7 series): 83%

Molecule: FC(F)(F)c1cccc(-n2c3c4cc(-c5cnc6ccccc6c5)ccc4ncc3n3cnnc23)c1 [3-quinoline, H, H, 4-(quinolin-3yl)-16-[3-(trifluoromethyl)phenyl]-8,11,13,14,16-pentaazatetracyclo-[8.6.0.0^2,7.0^11,15]hexadeca-1(10),2,4,6,8,12,14-heptaene]
- activity at 0.03 µM (mTor; scaffold drawing 7 series): -5%
- pi3K % activity @0.03 μM (pi3K; scaffold drawing 7 series): 68%

Molecule: 2-(4-methylpiperazin-1-yl)-N-(5-{16-[3-(trifluoromethyl)phenyl]-8,11,13,14,16-pentaazatetra-cyclo[8.6.0.0^2,7.0^11,15]hexadeca-1(10),2,4,6,8,12,14-heptaen-4-yl}pyridin-2-yl)acetamide
- mTor % activity @0.03 μM (mTor; scaffold drawing 7 series): 46%
- pi3K % activity @0.03 μM (pi3K; scaffold drawing 7 series): 97%

Molecule: 2-[(5-{16-[3-(trifluoromethyl)phenyl]-8,11,13,14,16-pentaazatetracyclo-[8.6.0.0^2,7.0^11,15]-hexadeca-1(10),2,4,6,8,12,14-heptaen-4-yl}pyridin-2-yl-amino]ethan-1-ol
- mTor % activity @0.03 μM (mTor; scaffold drawing 7 series): 8%
- pi3K % activity @0.03 μM (pi3K; scaffold drawing 7 series): 96%

Molecule: FC(F)(F)c1cccc(-n2c3c4cc(-c5ccc(NCCN6CCCC6)nc5)ccc4ncc3n3cnnc23)c1 [N-[2-(pyrrolidin-1-yl)ethyl]-5-{16-[3-(trifluoromethyl)phenyl]-8,11,13,14,16-pentaazatetracyclo-[8.6.0.0^2,7.0^11,15]-hexadeca-1(10),2,4,6,8,12,14-heptaen-4-yl}pyridin-2-amine]
- activity at 0.03 µM (mTor; scaffold drawing 7 series): 4%
- pi3K % activity @0.03 μM (pi3K; scaffold drawing 7 series): 101%

Molecule: COCCNc1ccc(-c2ccc3ncc4c(c3c2)n(-c2cccc(C(F)(F)F)c2)c2nncn42)cn1 [N-(2-methoxyethyl)-5-{16-[3-(trifluoromethyl)phenyl]-8,11,13,14,16-pentaazatetracyclo-[8.6.0.0^2,7.0^11,15]-hexadeca-1(10),2,4,6,8,12,14-heptaen-4-yl}pyridin-2-amine]
- activity at 0.03 µM (mTor; scaffold drawing 7 series): -3%
- pi3K % activity @0.03 μM (pi3K; scaffold drawing 7 series): 92%

Molecule: O=C(CN1CCOCC1)Nc1ccc(-c2ccc3ncc4c(c3c2)n(-c2ccc(Cl)c(C(F)(F)F)c2)c2nncn42)cn1 [N-(5-{16-[4-chloro-3-(trifluoromethyl)phenyl]-8,11,13,14,16-pentaazatetracyclo[8.6.0.0^2,7.0^11,15]-hexadeca-1(10),2,4,6,8,12,14-heptaen-4-yl}pyridin-2-yl)-2-(morpholin-4-yl)acetamide]
- activity at 0.03 µM (mTor; scaffold drawing 7 series): 17%
- pi3K % activity @0.03 μM (pi3K; scaffold drawing 7 series): 82%

Molecule: O=C(CN1CCOCC1)Nc1ccc(-c2ccc3ncc4c(c3c2)n(-c2cccc(C(F)(F)F)c2)c2nncn42)cn1 [2-(morpholin-4-yl)-N-(5-{16-[3-(trifluoromethyl)phenyl]-8,11,13,14,16-pentaazatetracyclo-[8.6.0.0^2,7.0^11,15]hexadeca-1(10),2,4,6,8,12,14-heptaen-4-yl}pyridin-2-yl)acetamide]
- activity at 0.03 µM (mTor; scaffold drawing 7 series): 31%
- pi3K % activity @0.03 μM (pi3K; scaffold drawing 7 series): 95%
